In patent publication US9365533B2, “Coumarin derivative” (NIPPON ZOKI PHARMACEUTICAL CO., LTD., priority 2012, dated 2016):

Tests used:
[1] = tested on: cartilage pieces of bovine metacarpophalangeal joint; assay: Suppressive action to cartilage destruction: release of sGAG induced by IL-1α from cartilage pieces; format: cell-based; conditions: Bos taurus, 96 h; 25 μmol/L test substance, 2 h pretreatment; human recombinant IL-1α 3 ng/mL; 4 days at 37° C.; read-out: sGAG Releasing Suppressive Rate (%)
Procedure: Evaluation of Suppressive Action to Cartilage Destruction [Release of sGAG Induced by Interleukin-1α (IL-1α)]
(1) Incubation of Cartilage Pieces
Each four cartilage pieces of bovine metacarpophalangeal joint were placed in each well of a 48-well plate and pretreated for 2 hours with a basal medium [D-MEM (Dulbecco's Modified Eagle Medium) containing 2 mmol/L of glutamine, 25 mmol/L of Hepes, 100 μg/mL of streptomycin, 100 IU/mL of penicillin and 5.6 μg/mL of amphotericin B] containing 25 μmol/L of a test substance. Human recombinant IL-1α (3 ng/mL) was added thereto followed by incubating at 37° C. for 4 days in a CO2 incubator set at 5 vol % of CO2. Culture supernatant and cartilage pieces were recovered and stored by freezing until the measurement for each of them.
(2) Measurement of the Amount of sGAG and Calculation of the Suppressive Rate for the Release of sGAG
The recovered cartilage pieces were treated with a papain solution [containing 1 mg/mL of papain, 100 mmol/L of sodium phosphate (pH 6.5), 5 mmol/L of L-cysteine and 5 mmol/L of disodium ethylenediaminetetraacetate (EDTA)] at 65° C. for about 16 hours to solubilize. Amount of sGAG in the resulting extract was measured using an sGAG Alcian Blue Binding Kit (Wieslab AB) which is a quantitative kit to which a Alcian blue staining protocol is applied. sGAG in the culture supernatant after the incubation was measured without subjecting to a papain treatment. Each releasing rate of sGAG was determined by the following formula to calculate the suppressive rate for the release of sGAG. Releasing rate (%) of sGAG={(Total sGAG amount in the culture supernatant)/[(Total sGAG amount in the culture supernatant)+(Total sGAG amount in the cartilage pieces)]}×100 Suppressive rate (%) for release of sGAG={[Releasing rate of sGAG (IL-1α stimulation)−Releasing rate of sGAG (Test substance)]/[Releasing rate of sGAG (IL-1α stimulation)−Releasing rate of sGAG (Non-stimulation)]}×100

HFLS-OA cells = assay: Suppressive action to TNF-α-induced proliferation of synovial cells (HFLS-OA), BrdU ELISA; format: cell-based; conditions: 200 μmol/L test substance, human recombinant TNF-α 10 ng/mL, 5 days, BrdU incorporation increase by TNF-α = 100%; for activity at 200 µM: Synovial cell, 120 h, read-out: Synovial Cell Proliferation Rate (%)
Procedure: Evaluation of Suppressive Action to Cell Proliferation of Synovial Cells (HFLS-OA) Derived from Tissues of Human Osteoarthritis
(1) Incubation of HFLS-OA Cells
HFLS-OA cells were sown onto a 96-well plate so as to make them 10^4 cells/well/100 μL in a D-MEM containing 2 vol % of fetal bovine serum (FBS) and incubated for 24 hours. A test substance (200 μmol/L) and human recombinant TNF-α (10 ng/mL) were added thereto followed by incubating for 5 days.
(2) Measurement of Action to HFLS-OA Cell Proliferation
A kit [Cell Proliferation ELISA, BrdU (colorimetric) (Roche Diagnostics)] was used and measurement was conducted according to the protocol attached to the kit. HFLS-OA cells were incubated for 3 days and 10 μL of 5-bromo-2′-deoxyuridine (BrdU) dissolved in a phosphate buffered saline (PBS) (100 μmol/L, pH 7.4) was added to each well followed by incubating for 48 hours more. After the culture supernatant was removed from each well, 200 μL/well of an immobilization/denaturation solution was added thereto and the mixture was allowed to stand for 30 minutes whereby immobilization of the cells and denaturation of DNA were conducted. After the immobilization/denaturation solution was completely removed, 100 μL of a peroxidase-labeled anti-BrdU antibody solution was added thereto and the mixture was made to react at room temperature for 90 minutes. After washing with PBS, 100 μL of a substrate liquid (tetramethylbenzidine) was added to each well and the absorbance was measured. A cell proliferation rate upon addition of each test substance was calculated where an increase in incorporation of BrdU upon addition of TNF-α was defined as 100% of cell proliferation rate.

SMILES | inhibition at 25 µM [1] [%] | activity at 200 µM (HFLS-OA cells) [%] | Synovial Cell Proliferation Rate (%) (HFLS-OA cells)
COc1ccc(S(=O)(=O)Nc2cc3cccc(OS(=O)(=O)c4ccc(OC)cc4)c3oc2=O)cc1 [Compound 1, 3-[(4-Methoxyphenyl)sulfonylamino]-2-oxochromen-8-yl 4-methoxybenzenesulfonate] | 93 | -39.1 | –
COc1cccc(S(=O)(=O)Nc2cc3cccc(OS(=O)(=O)c4cccc(OC)c4)c3oc2=O)c1 [Compound 2, 3-[(3-Methoxyphenyl)sulfonylamino]-2-oxochromen-8-yl 3-methoxybenzenesulfonate] | – | -52.2 | –
COc1ccccc1S(=O)(=O)Nc1cc2cccc(OS(=O)(=O)c3ccccc3OC)c2oc1=O [Compound 3, 3-[(2-Methoxyphenyl)sulfonylamino]-2-oxochromen-8-yl 2-methoxybenzenesulfonate] | – | -65.1 | –
Cc1ccc(S(=O)(=O)Nc2cc3cccc(OS(=O)(=O)c4ccc(C)cc4)c3oc2=O)cc1 [Compound 4, 2-Oxo-3-(p-tolylsulfonylamino)chromen-8-yl 4-methyl-benzenesulfonate] | – | -88.1 | –
Cc1cccc(S(=O)(=O)Nc2cc3cccc(OS(=O)(=O)c4cccc(C)c4)c3oc2=O)c1 [Compound 5, 3-(m-Tolylsulfonylamino)-2-oxochromen-8-yl 3-methyl-benzenesulfonate] | – | -84.9 | –
Cc1ccccc1S(=O)(=O)Nc1cc2cccc(OS(=O)(=O)c3ccccc3C)c2oc1=O [Compound 6, 3-(o-Tolylsulfonylamino)-2-oxochromen-8-yl 2-methyl-benzenesulfonate] | – | -77.4 | –
O=c1oc2c(OS(=O)(=O)c3ccc(Cl)cc3)cccc2cc1NS(=O)(=O)c1ccc(Cl)cc1 [Compound 7, 3-[(4-Chlorophenyl)sulfonylamino]-2-oxochromen-8-yl 4-chlorobenzenesulfonate] | – | -92.5 | –
O=c1oc2c(OS(=O)(=O)c3cccc(Cl)c3)cccc2cc1NS(=O)(=O)c1cccc(Cl)c1 [Compound 8, 3-[(3-Chlorophenyl)sulfonylamino]-2-oxochromen-8-yl 3-chlorobenzenesulfonate] | – | -94.4 | –
O=c1oc2c(OS(=O)(=O)c3ccccc3Cl)cccc2cc1NS(=O)(=O)c1ccccc1Cl [Compound 9, 3-[(2-Chlorophenyl)sulfonylamino]-2-oxochromen-8-yl 2-chlorobenzenesulfonate] | – | -88.8 | –
O=c1oc2c(OS(=O)(=O)c3ccc(F)cc3)cccc2cc1NS(=O)(=O)c1ccc(F)cc1 [Compound 10, 3-[(4-Fluorophenyl)sulfonylamino]-2-oxochromen-8-yl 4-fluorobenzenesulfonate] | – | -34.9 | –
O=c1oc2c(OS(=O)(=O)c3cccc(F)c3)cccc2cc1NS(=O)(=O)c1cccc(F)c1 [Compound 11, 3-[(3-Fluorophenyl)sulfonylamino]-2-oxochromen-8-yl 3-fluorobenzenesulfonate] | – | -90.6 | –
O=c1oc2c(OS(=O)(=O)c3ccccc3F)cccc2cc1NS(=O)(=O)c1ccccc1F [Compound 12, 3-[(2-Fluorophenyl)sulfonylamino]-2-oxochromen-8-yl 2-fluorobenzenesulfonate] | – | -91.8 | –
N#Cc1ccc(S(=O)(=O)Nc2cc3cccc(OS(=O)(=O)c4ccc(C#N)cc4)c3oc2=O)cc1 [Compound 13, 3-[(4-Cyanophenyl)sulfonylamino]-2-oxochromen-8-yl 4-cyanobenzenesulfonate] | 44 | -54.1 | –
N#Cc1cccc(S(=O)(=O)Nc2cc3cccc(OS(=O)(=O)c4cccc(C#N)c4)c3oc2=O)c1 [Compound 14, 3-[(3-Cyanophenyl)sulfonylamino]-2-oxochromen-8-yl 3-cyanobenzenesulfonate] | 66 | -60.3 | –
N#Cc1ccccc1S(=O)(=O)Nc1cc2cccc(OS(=O)(=O)c3ccccc3C#N)c2oc1=O [Compound 15, 3-[(2-Cyanophenyl)sulfonylamino]-2-oxochromen-8-yl 2-cyanobenzenesulfonate] | – | -3.3 | –
O=c1oc2c(OS(=O)(=O)c3ccc([N+](=O)[O-])cc3)cccc2cc1NS(=O)(=O)c1ccc([N+](=O)[O-])cc1 [Compound 16, 3-[(4-Nitrophenyl)sulfonylamino]-2-oxochromen-8-yl 4-nitrobenzenesulfonate] | 112 | -19.9 | –
O=c1oc2c(OS(=O)(=O)c3cccc([N+](=O)[O-])c3)cccc2cc1NS(=O)(=O)c1cccc([N+](=O)[O-])c1 [Compound 17, 3-[(3-Nitrophenyl)sulfonylamino]-2-oxochromen-8-yl 3-nitrobenzenesulfonate] | 156 | -24.9 | –
O=c1oc2c(OS(=O)(=O)c3ccccc3[N+](=O)[O-])cccc2cc1NS(=O)(=O)c1ccccc1[N+](=O)[O-] [Compound 18, 3-[(2-Nitrophenyl)sulfonylamino]-2-oxochromen-8-yl 2-nitrobenzenesulfonate] | 81 | -23.8 | –
N#Cc1ccc(S(=O)(=O)Oc2cccc3cc(NS(=O)(=O)c4ccccc4)c(=O)oc23)cc1 [Compound 20, 3-(Benzenesulfonylamino)-2-oxochromen-8-yl 4-cyanobenzenesulfonate] | 35 | -42.1 | –
N#Cc1ccc(S(=O)(=O)Nc2cc3cccc(OS(=O)(=O)c4ccccc4)c3oc2=O)cc1 [Compound 21, 3-[(4-Cyanophenyl)sulfonylamino]-2-oxochromen-8-yl benzenesulfonate] | 69 | -41.2 | –
N#Cc1cccc(S(=O)(=O)Nc2cc3cccc(OS(=O)(=O)c4ccccc4)c3oc2=O)c1 [Compound 22, 3-[(3-Cyanophenyl)sulfonylamino]-2-oxochromen-8-yl benzenesulfonate] | 92 | -38.4 | –
O=c1oc2c(OS(=O)(=O)c3ccccc3)cccc2cc1NS(=O)(=O)c1ccc([N+](=O)[O-])cc1 [Compound 23, 3-[(4-Nitrophenyl)sulfonylamino]-2-oxochromen-8-yl benzenesulfonate] | 103 | -39 | –
O=c1oc2c(OS(=O)(=O)c3ccccc3)cccc2cc1NS(=O)(=O)c1cccc([N+](=O)[O-])c1 [Compound 24, 3-[(3-Nitrophenyl)sulfonylamino]-2-oxochromen-8-yl benzenesulfonate] | 90 | -40 | –
O=c1oc2c(OS(=O)(=O)c3ccccc3)cccc2cc1NS(=O)(=O)c1cccc(F)c1 [Compound 25, 3-[(3-Fluorophenyl)sulfonylamino]-2-oxochromen-8-yl benzenesulfonate] | 77 | -40.9 | –
O=c1oc2c(OS(=O)(=O)c3ccccc3)cccc2cc1NS(=O)(=O)c1ccc(F)c(F)c1 [Compound 26, 3-[(3,4-Difluorophenyl)sulfonylamino]-2-oxochromen-8-yl benzenesulfonate] | 97 | -38.4 | –
CS(=O)(=O)Nc1cc2cccc(OS(=O)(=O)c3cccc(Br)c3)c2oc1=O [Compound 39, 3-(Methanesulfonamide)-2-oxochromen-8-yl 3-bromobenzenesulfonate] | – | – | −43.0
CS(=O)(=O)Nc1cc2cccc(OS(=O)(=O)c3ccccc3)c2oc1=O [Compound 40, 3-(Methanesulfonamide)-2-oxochromen-8-yl benzene-sulfonate] | – | – | −40.5
